Measured values from patent US20040072839A1, “1-Phenylalkylpiperazines” (priority 2002, published 2004).
pKi: −log10 of the molar value. Like-named read-outs stand apart in the source and are kept apart here.

Experiments:
[1] = system: rhythmic bladder-voiding contractions in anaesthetised rats; experiment: Rhythmic bladder-voiding contractions induced by bladder filling in anaesthetised rats; format: in vivo, rat; conditions: intravenous administration; for ED50: Rattus norvegicus
Protocol: Female Sprague-Dawley rats weighing 225-275 g (Crl: CD® (SD) IGS BR, Charles River Italia) were used. The animals were housed with free access to food and water and maintained on a forced 12-hour alternating light-dark cycle at 22-24° C. for at least one week, except during the experiment. The activity on rhythmic bladder voiding contractions was evaluated according to the method of Dray (Dray J., Pharmacol. Methods, 13:157, 1985), with some modifications as in Guarneri (Guarneri, Pharmacol. Res. 27:173, 1993). Briefly, rats were anaesthetised by subcutaneous injection of 1.25 g/kg (5 ml/kg) urethane, after which the urinary bladder was catheterised via the urethra using PE 50 polyethylene tubing filled with physiological saline. The catheter was tied in place with a ligature around the external urethral orifice and was connected to conventional pressure transducers (Statham P23 ID/P23 XL). […] The bladder was then filled via the recording catheter by incremental volumes of warm (37° C.) saline until reflex bladder-voiding contractions occurred (usually 0.8-1.5 ml). For intravenous injection of bioactive compounds, PE 50 polyethylene tubing filled with physiological saline was inserted into the jugular vein.
From the cystometrogram, the number of contractions recorded 15 minutes before (basal values) and after treatment, as well as the mean amplitude of these contractions (mean height of the peaks in mmHg), was evaluated.
Since most compounds produced an effect that was relatively rapid in onset and lead to a complete cessation of bladder contractions, bioactivity was conveniently estimated by measuring the duration of bladder quiescence (i.e., the length of the time during which no contractions occured). The number of tested animals showing a reduction in the number of contractions higher than 30% of that observed in the basal period was also recorded.
To compare the potency of the tested compounds for inhibiting the bladder voiding contractions, equieffective doses that result in the disappearance of contractions for a time of 10 minutes (ED10min) were computed by means of linear regression using the least square method. The extrapolated doses which induces a reduction in the number of contractions greater than 30% in 50% of the treated rats (ED50) was evaluated by the method of Bliss (Bliss C. I., Quart J. Pharm. Pharmacol. 11, 192-216, 1938).
Data represent the ED10min values (the extrapolated dose inducing 10 minutes of disappearance of the contractions), the ED50 (frequency) values (the extrapolated doses inducing a reduction of the number of contractions >30% in 50% of treated rats), and the ED50 (amplitude) values (the extrapolated doses inducing a 30% reduction of amplitude of the contractions in 50% of treated rats).

[2] = target: T1, human 5-HT1A-serotonergic receptor (Homo sapiens, UniProt P08908); experiment: Radioligand binding to recombinant 5-HT1A receptors ([3H]8-OH-DPAT, HeLa cell membranes); conditions: 1 nM [3H]8-OH-DPAT; Ki from IC50 by Cheng & Prusoff; read-out: Ki, binding affinity for 5-HT1A receptors
T1 construct: expressed in transfected cells; host or cells: HeLa (human), stably transfected; membrane preparation
T1 sequence (P08908 1-422): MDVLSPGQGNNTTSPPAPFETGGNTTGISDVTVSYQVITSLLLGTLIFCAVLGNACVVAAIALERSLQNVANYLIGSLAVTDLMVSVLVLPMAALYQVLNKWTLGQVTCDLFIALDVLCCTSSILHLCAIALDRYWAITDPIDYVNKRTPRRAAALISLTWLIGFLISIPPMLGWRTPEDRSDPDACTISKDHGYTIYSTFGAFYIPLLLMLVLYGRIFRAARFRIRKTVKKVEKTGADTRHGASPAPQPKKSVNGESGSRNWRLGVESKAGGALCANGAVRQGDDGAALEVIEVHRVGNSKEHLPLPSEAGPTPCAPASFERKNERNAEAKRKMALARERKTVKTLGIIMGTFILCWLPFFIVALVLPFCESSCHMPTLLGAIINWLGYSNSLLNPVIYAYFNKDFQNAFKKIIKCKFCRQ
Protocol: Genomic clone coding for the human 5-HT1A-serotonergic receptor was stably transfected in a human cell line (HeLa). HeLa cells were grown as monolayers in Dulbecco's modified Eagle medium (DMEM), containing 10% foetal bovine serum, gentamycin (0.1 mg/ml) and 5% carbon dioxide, at 37° C. The cells were detached from the growth flask at 95% confluence by a cell scraper and were lysed in cold 5 mM Tris and 5 mM EDTA buffer (pH 7.4). The homogenates were centrifuged at 40000×g×20 minutes and the pellets were resuspended in a small volume of cold 5 mM Tris and 5 mM EDTA buffer (pH 7.4) and immediately frozen and stored at −70° C. until use. On the day of experiment, the cell membranes were resuspended in incubation buffer: 50 mM Tris HCl (pH 7.4), 2.5 mM MgCl2, […] (Fargin et al., Nature 335, 358-360, 1988). The membranes were incubated in a final volume of 1 ml for 30 minutes at 30° C. with 1 nM [^3H]8-OH-DPAT, in the absence or presence of the test compounds. Non-specific binding was determined in the presence of 10 μM 5-HT. Incubation was stopped by addition of cold Tris-HC1 buffer and rapid filtration through a 0.2%-polyethyleneimine-pretreated Whatman-GF/B or Schleicher-&-Schuell-GF52 filter.
The affinities of the tested compounds were evaluated as inhibition of specific binding of the radioligand to 5-HT1A receptors (IC50) by using the non-linear curve-fitting program Allfit (De Lean et al., Am. J. Physiol. 235, E97-E102 (1978). The IC50 value was converted to an affinity constant (Ki) by the equation of Cheng & Prusoff (Cheng Y. C., Prusoff W. H., Biochem. Pharmacol. 22, 3099-3108 (1973)).

[3] = target: T2, 5-HT1A receptors (Rattus norvegicus, UniProt P19327); experiment: Inhibition of stereotypy (rhythmic forepaw treading) induced by 8-OH-DPAT in rats (post-synaptic antagonism); format: in vivo
T2 construct: stereotyped forepaw treading induced in rats by subcutaneous injection of 8-OH-DPAT; from tissue; host or cells: whole animal (male Sprague-Dawley rats), endogenous post-synaptic receptors
T2 sequence (P19327 1-422): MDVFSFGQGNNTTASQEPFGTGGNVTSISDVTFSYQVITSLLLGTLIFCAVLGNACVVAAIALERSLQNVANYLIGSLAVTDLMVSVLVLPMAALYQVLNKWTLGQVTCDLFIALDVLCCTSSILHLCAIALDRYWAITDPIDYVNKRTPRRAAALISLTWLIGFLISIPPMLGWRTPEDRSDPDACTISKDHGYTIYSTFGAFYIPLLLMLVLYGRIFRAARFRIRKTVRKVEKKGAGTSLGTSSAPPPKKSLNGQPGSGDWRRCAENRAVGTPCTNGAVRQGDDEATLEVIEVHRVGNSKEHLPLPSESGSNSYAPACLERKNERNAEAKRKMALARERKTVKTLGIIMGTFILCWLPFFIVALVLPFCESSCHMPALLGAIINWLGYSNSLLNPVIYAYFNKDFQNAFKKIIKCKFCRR
Protocol: The inhibitory effect of 5-HT1A-receptor antagonists on stereotyped forepaw treading induced in rats by subcutaneous injection of 8-OH-DPAT was evaluated by the method of Tricklebank (Tricklebank et al., Eur. J. Pharmacol., 117: 15, 1985) with minor modifications as described below.
Male Sprague-Dawley rats[Crl: CD® (SD) IGS BR] weighing 150-175 g from Charles River Italia were used. The animals were housed with free access to food and water and maintained on a forced 12-hour-light/12-hour-dark cycle at 22-24° C. of temperature. On the day of the experiment, the rats were placed singly in clear plastic containers, 10-15 minutes before administration of the vehicle or compounds to be tested. For evaluation of antagonistic activity after oral administration, the compounds were administered 1 and 4 hours before induction of stereotypy by 8-OH-DPAT (1 mg/kg subcutaneously). Observation sessions last 30 seconds and were begun 3 minutes after 8-OH-DPAT treatment and repeated every 3 minutes over a period of 15 minutes.
The appearance of the symptom induced by postsynaptic stimulation of 5-HT1A receptors was noted, and the intensity was scored using an intensity scale in which: 0=absent, 1=equivocal, 2=present and 3=intense. Behavioural scores for treated rats were accumulated throughout the observation time (5 observation periods) and expressed as mean values of 4 rats/dose. Change in mean values of treated animals in comparison with control (vehicle) group, expressed as per-cent inhibition, were used to quantify the antagonistic activity.

[4] = urethane-anaesthetised female rats, read-out: ED50 (frequency) (extrapolated dose inducing a reduction of the number of contractions >30% in 50% of treated rats)
[5] = urethane-anaesthetised female rats

Row | SMILES | ED50 [1, 4] [mg/kg] | ED10 min (extrapolated dose inducing 10 minutes of disappearance of the contractions) [1, 5] [mg/kg] | pKi [2] | % Inhibition of forepaw treading, 1 h ([3]; 10 mg/kg p.o., given 1 h before 8-OH-DPAT (1 mg/kg s.c.)) [%] | % Inhibition of forepaw treading, 4 h ([3]; 10 mg/kg p.o., given 4 h before 8-OH-DPAT (1 mg/kg s.c.)) [%] | inhibition of stereotypy induced by 8-OH-DPAT (in words) ([3]; oral administration) | ED50 ([1]; n.a. = not active, no significant reduction of the height of the peaks, read-out: ED50 (amplitude) (extrapolated dose inducing a 30% reduction of amplitude of the contractions in 50% of treated rats)) [mg/kg]
1 | COc1ccccc1N1CCN(CC[C@H](c2ccccc2F)[C@@H](OC(C)=O)C2CCCCC2)CC1 (racemic) [Example 45, (RS,SR) 1-[4-Acetoxy-4-cyclohexyl-3-(2-fluorophenyl)butyl]-4-(2-methoxyphenyl)piperazine] | 0.127 | 0.584 | 9.27 | 100 | 81 | potent and long-lasting inhibition | 
2 | CCN(CC)CC#CCOC(=O)C(O)(c1ccccc1)C1CCCCC1 (centres unmarked) [Oxybutynin] | > 10 | 7.77 |  |  |  |  | 0.24
3 | CN1CC[C@]23c4c5ccc(O)c4O[C@H]2[C@@H](O)C=C[C@H]3[C@H]1C5 [Morphine] | 0.03 | 0.05 |  |  |  |  | 
